Laboratory results taken from ChEMBL document CHEMBL2074292, “Isolation, characterization and differential gene expression of multispecific organic anion transporter 2 in mice” (Mol Pharmacol, 2002).
Values belong to the molecule of their own block, whether it stands above or below them.

Assays:
[1] = molecular target: T1, Solute carrier family 22 member 7 (Mus musculus, UniProt Q91WU2); assay: (§1) TP_TRANSPORTER: uptake in Xenopus laevis oocytes; type: functional, cell-based; conditions: oocyte
T1 sequence (Q91WU2 whole entry): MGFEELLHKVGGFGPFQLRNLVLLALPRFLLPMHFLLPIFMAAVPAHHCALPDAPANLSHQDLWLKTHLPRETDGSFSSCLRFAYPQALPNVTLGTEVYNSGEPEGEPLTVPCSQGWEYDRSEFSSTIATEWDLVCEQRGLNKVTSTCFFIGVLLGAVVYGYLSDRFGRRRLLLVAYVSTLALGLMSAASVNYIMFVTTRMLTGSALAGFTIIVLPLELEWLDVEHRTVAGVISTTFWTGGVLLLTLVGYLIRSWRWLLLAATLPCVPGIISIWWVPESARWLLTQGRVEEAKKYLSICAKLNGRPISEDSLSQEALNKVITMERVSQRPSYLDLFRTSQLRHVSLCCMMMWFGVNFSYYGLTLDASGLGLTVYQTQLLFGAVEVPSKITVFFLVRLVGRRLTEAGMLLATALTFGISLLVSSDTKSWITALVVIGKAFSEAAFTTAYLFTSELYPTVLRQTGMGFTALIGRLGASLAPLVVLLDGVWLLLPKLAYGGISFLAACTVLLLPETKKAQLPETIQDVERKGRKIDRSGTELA

[2] = molecular target: T1, Solute carrier family 22 member 7; assay: TP_TRANSPORTER: inhibition of Glutarate uptake (Glutarate: 5 uM, Cefoperazone: 1000 uM) in Xenopus laevis oocytes; type: functional, cell-based; conditions: oocyte
[3] = molecular target: T1, Solute carrier family 22 member 7; assay: TP_TRANSPORTER: inhibition of Glutarate uptake (Glutarate: 5 uM, Enalapril: 1000 uM) in Xenopus laevis oocytes; type: functional, cell-based; conditions: oocyte
[4] = molecular target: T1, Solute carrier family 22 member 7; assay: TP_TRANSPORTER: inhibition of Glutarate uptake (Glutarate: 5 uM, Erythromycin: 1000 uM) in Xenopus laevis oocytes; type: functional, cell-based; conditions: oocyte
[5] = molecular target: T1, Solute carrier family 22 member 7; assay: TP_TRANSPORTER: inhibition of Glutarate uptake (Glutarate: 5 uM, ICG: 1000 uM) in Xenopus laevis oocytes; type: functional, cell-based; conditions: oocyte
[6] = molecular target: T1, Solute carrier family 22 member 7; assay: TP_TRANSPORTER: inhibition of Glutarate uptake (Glutarate: 5 uM, Oxaloacetate: 1000 uM) in Xenopus laevis oocytes; type: functional, cell-based; conditions: oocyte
[7] = molecular target: T1, Solute carrier family 22 member 7; assay: TP_TRANSPORTER: inhibition of Glutarate uptake (Glutarate: 5 uM, BSP: 250 uM) in Xenopus laevis oocytes; type: functional, cell-based; conditions: oocyte
[8] = substrate: CCCCC[C@H](O)/C=C/[C@H]1[C@H](O)CC(=O)[C@@H]1C/C=C\CCCC(=O)O; assay: as §1; type: functional, cell-based, Oocyte
[9] = substrate: O=C(O)CCCC(=O)O; assay: as §1; type: functional, cell-based, Oocyte

Molecule: C[C@@H]1Cc2c(Cl)cc(C(=O)N[C@@H](Cc3ccccc3)C(=O)O)c(O)c2C(=O)O1 [3R14S-OCHRATOXIN A]
- Activity [1]: substrate [+]

Molecule: Oc1ncnc2[nH]ncc12 [ALLOPURINOL]
- Activity [1]: substrate [+]

- Activity [1]: substrate [+]
Molecule: O=C(O)CCC(=O)C(=O)O [ALPHA-KETOGLUTARIC ACID]

- Activity [1]: substrate [+]
Molecule: Nc1ccc(C(=O)NCC(=O)O)cc1 [AMINOHIPPURIC ACID]

Molecule: CCN1CCN(C(=O)N[C@@H](C(=O)N[C@@H]2C(=O)N3C(C(=O)O)=C(CSc4nnnn4C)CS[C@H]23)c2ccc(O)cc2)C(=O)C1=O [CEFOPERAZONE]
- Activity [2]: inhibitor [(at a rough estimate) 40 % of control]

Molecule: CCOC(=O)[C@H](CCc1ccccc1)N[C@@H](C)C(=O)N1CCC[C@H]1C(=O)O [ENALAPRIL]
- Activity [3]: inhibitor [(at a rough estimate) 30 % of control]

Molecule: CC[C@H]1OC(=O)[C@H](C)[C@@H](O[C@H]2C[C@@](C)(OC)[C@@H](O)[C@H](C)O2)[C@H](C)[C@@H](O[C@@H]2O[C@H](C)C[C@H](N(C)C)[C@H]2O)[C@](C)(O)C[C@@H](C)C(=O)[C@H](C)[C@@H](O)[C@]1(C)O [ERYTHROMYCIN]
- Activity [4]: inhibitor [(at a rough estimate) 20 % of control]

Molecule: CC1(C)C(/C=C/C=C/C=C/C=C2/N(CCCCS(=O)(=O)[O-])c3ccc4ccccc4c3C2(C)C)=[N+](CCCCS(=O)(=O)[O-])c2ccc3ccccc3c21.[Na+] [INDOCYANINE GREEN]
- Activity [5]: inhibitor [(at a rough estimate) 30 % of control]

Molecule: O=C(O)CC(=O)C(=O)O [OXALOACETATE]
- Activity [6]: inhibitor [(at a rough estimate) 45 % of control]

Molecule: O=C(O)c1ccccc1O [SALICYLIC ACID]
- Activity [1]: is not a substrate [-]

Molecule: O=C1OC(c2ccc(O)c(S(=O)(=O)[O-])c2)(c2ccc(O)c(S(=O)(=O)[O-])c2)c2c(Br)c(Br)c(Br)c(Br)c21.[Na+].[Na+] [SULFOBROMOPHTHALEIN SODIUM]
- Activity [7]: inhibitor [(at a rough estimate) 25 % of control]

- Activity [1]: substrate [+]
Molecule: CCCC(CCC)C(=O)O [VALPROIC ACID]

B1: Solute carrier family 22 member 7 (Mus musculus) (protein)
chain: MGFEELLHKVGGFGPFQLRNLVLLALPRFLLPMHFLLPIFMAAVPAHHCALPDAPANLSHQDLWLKTHLPRETDGSFSSCLRFAYPQALPNVTLGTEVYNSGEPEGEPLTVPCSQGWEYDRSEFSSTIATEWDLVCEQRGLNKVTSTCFFIGVLLGAVVYGYLSDRFGRRRLLLVAYVSTLALGLMSAASVNYIMFVTTRMLTGSALAGFTIIVLPLELEWLDVEHRTVAGVISTTFWTGGVLLLTLVGYLIRSWRWLLLAATLPCVPGIISIWWVPESARWLLTQGRVEEAKKYLSICAKLNGRPISEDSLSQEALNKVITMERVSQRPSYLDLFRTSQLRHVSLCCMMMWFGVNFSYYGLTLDASGLGLTVYQTQLLFGAVEVPSKITVFFLVRLVGRRLTEAGMLLATALTFGISLLVSSDTKSWITALVVIGKAFSEAAFTTAYLFTSELYPTVLRQTGMGFTALIGRLGASLAPLVVLLDGVWLLLPKLAYGGISFLAACTVLLLPETKKAQLPETIQDVERKGRKIDRSGTELA
- Km [8]: 0.0052 µM
- Km [9]: 15.8 µM
